Assay results: PubChem BioAssay AID721 (PCMD, 2007)
Activity calls are given as the source filed them. How the calls were made is not given here.

molecular target: Coagulation factor XI (Homo sapiens) (UniProt P03951); test: FXIa inhibitor IC50 values, dose response, biochemical, hits from single-well screen (AID 721); conditions: purified factor XIa enzymatic assay, fluorescence
Sequence (P03951 19-387 limits assumed): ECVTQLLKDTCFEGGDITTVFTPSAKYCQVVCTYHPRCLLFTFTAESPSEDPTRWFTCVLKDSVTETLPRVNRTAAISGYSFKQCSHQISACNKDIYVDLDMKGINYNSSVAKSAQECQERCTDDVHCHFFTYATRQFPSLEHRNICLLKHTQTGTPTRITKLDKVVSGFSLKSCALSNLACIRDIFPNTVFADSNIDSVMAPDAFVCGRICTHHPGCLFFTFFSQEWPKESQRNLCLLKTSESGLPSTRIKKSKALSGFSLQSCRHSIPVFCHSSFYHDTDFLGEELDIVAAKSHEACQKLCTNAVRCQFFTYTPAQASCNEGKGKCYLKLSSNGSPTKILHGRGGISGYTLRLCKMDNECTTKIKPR
Sequence (P03951 388-625 limits assumed): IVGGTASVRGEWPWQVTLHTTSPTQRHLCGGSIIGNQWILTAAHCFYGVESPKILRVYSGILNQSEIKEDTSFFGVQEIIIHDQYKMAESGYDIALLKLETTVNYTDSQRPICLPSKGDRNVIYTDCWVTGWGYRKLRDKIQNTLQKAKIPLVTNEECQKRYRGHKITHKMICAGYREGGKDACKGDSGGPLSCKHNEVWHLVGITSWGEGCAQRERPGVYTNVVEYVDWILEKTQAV

SMILES	IC50
COc1cc(OC)cc(-c2nnc(SCc3cccc(C(=O)O)c3)o2)c1	> 50 µM (inactive)
Cc1ccccc1C(=O)N=c1sccn1C	> 50 µM (inactive)
O=C(c1cccc2ccccc12)n1nnc2ccccc21	> 50 µM (inactive)
C=CCn1c(=O)c2c(nc(Br)n2Cc2ccccc2Cl)n(C)c1=O	0.638 µM
COc1ccccc1-n1cnnc1SCC(=O)Nc1nc(C)c(Cl)cc1Cl	10.2 µM
COc1ccc(S(=O)(=O)N2CCC(C(=O)N3CCc4ccccc4C3)CC2)cc1Cl	6.26 µM
Cc1c(O)ccc(C(=O)CN2C(=O)c3ccccc3C2=O)c1O	> 50 µM (inactive)
Cc1cnc(C(=O)OCC(=O)NCc2ccccc2)cn1	> 50 µM (inactive)
N#Cc1ccc(NC(=O)COC(=O)CNC(=O)C2CCCCC2)cc1	> 50 µM (inactive)
CCOc1cccc2cc(C(N)=O)c(=NCc3ccccc3)oc12	> 50 µM (inactive)
CCC(CO)NCc1ccc(OC2CCCC2)cc1 (stereo not given)	> 50 µM (inactive)
Cc1ccc(-c2csc(N3CCC(NS(=O)(=O)c4ccc5c(c4)OCCO5)CC3)n2)cc1	> 50 µM (inactive)
CNCCCc1ccccc1	> 50 µM (inactive)
CCCC(=O)n1nc(-c2ccccc2)nc1SC	> 50 µM (inactive)
CCn1nc(CC(=O)Nc2nnc(CC(=O)N3CCCC3)s2)c2ccccc2c1=O	> 50 µM (inactive)
CCC1(c2ccccc2)C(=O)N(C)C(=O)N(C)C1=O	> 50 µM (inactive)
Cc1ccc(NS(=O)(=O)c2ccc(OCC(=O)N3CCOCC3)cc2)cc1	> 50 µM (inactive)
CCCc1nc2ccccc2c(=O)n1-c1ccc(OC)cc1	> 50 µM (inactive)
COC(=O)c1sc(NC(=O)CC(C)C)c(C(=O)OC)c1C	> 50 µM (inactive)
COCCN=C1Sc2nc3c(C)cccc3cc2CN1Cc1ccco1	0.745 µM
COc1cc(/C=c2\sc3n(c2=O)CCCN=3)ccc1O	> 50 µM (inactive)
CCOC(=O)N=S(=O)(Oc1ccc([N+](=O)[O-])cc1)c1ccccc1 (stereo not given)	> 50 µM (inactive)
N#Cc1cc2c(nc1SCC(=O)Nc1sc3c(c1C#N)CCC3)CCC2	> 50 µM (inactive)
CCCN(CCC)C(C(=O)Nc1cccc(OC)c1)c1ccccc1 (stereo not given)	> 50 µM (inactive)
O=c1nc(-c2ccccc2)c2cc(Cl)ccc2[nH]1	> 50 µM (inactive)

SMILES	IC50
CCCC1CCc2c(sc(N)c2C(N)=O)C1 (stereo not given)	> 50 µM (inactive)
CCc1c(O)nc(SCC(=O)NC(C)(C)C)n(-c2ccccc2)c1=O	> 50 µM (inactive)
COc1ccc(Cn2nnnc2C(c2ccccc2Cl)N2CCC(C(N)=O)CC2)cc1 (stereo not given)	> 50 µM (inactive)
CN(CCOc1ccccc1)c1ccc(S(=O)(=O)N2CCCCC2)cn1	> 50 µM (inactive)
COC(=O)c1[nH]c2ccc(Br)cc2c1NC(=O)CN1CCCc2ccccc21	> 50 µM (inactive)
Cn1c(SCC(=O)NC2CCCCC2)nnc1-c1cccc(N)c1	> 50 µM (inactive)
O=C(Oc1cccc(-n2cnnn2)c1)c1ccco1	4.06 µM
O=C(c1cn(-c2ccccc2)nc1-c1ccncc1)n1nnc2ccccc21	0.707 µM
CCC1CC2CC(NC(C)=O)C1C2 (stereo not given)	0.588 µM
Cc1cc(NC(=O)COC(=O)c2c(C)nn(Cc3ccccc3)c2C)no1	> 50 µM (inactive)
COc1ccc(OCC(=O)Nc2cc(-c3nn(C)c(=O)c4ccccc34)ccc2OC)cc1	> 50 µM (inactive)
O=c1cccc2n1CC1CC2CN(S(=O)(=O)c2ccccc2)C1 (stereo not given)	> 50 µM (inactive)
CCOC(=O)c1cc2c(ccn2C)n1CC(=O)N1CCC(C)CC1	0.744 µM
COc1cccc(C(=O)N(Cc2ccccc2)Cc2cc3cc4c(cc3[nH]c2=O)OCCO4)c1	10.4 µM
COc1ccc(CC(=O)NCc2ccc3c(c2)OCO3)cc1	> 50 µM (inactive)
CCN(CC)CCNC(=O)C(C)c1nn(C)c(=O)c2ccccc12 (stereo not given)	> 50 µM (inactive)
CCOc1cc(S(=O)(=O)N(Cc2ccccc2)Cc2ccccc2)c(OCC)cc1-n1cnnn1	> 50 µM (inactive)
Cn1nnnc1SCC(=O)N(C1CCCCC1)C1CCCCC1	> 50 µM (inactive)
Cc1ccc(C(=O)n2nc(-c3cccnc3)nc2N)cc1	> 50 µM (inactive)
CCc1ccc(CC2S/C(=C(\C#N)C(C)=O)NC2=O)cc1 (stereo not given)	> 50 µM (inactive)
COc1ccc(OCCSc2ncn[nH]2)cc1	> 50 µM (inactive)
O=c1c(-c2cc3ccccc3o2)[n+]([O-])c2ccccc2n1OCc1ccccn1	> 50 µM (inactive)
CCn1c(SCC(=O)c2[nH]c(C)c(C(C)=O)c2C)nnc1-c1ccccc1	7.44 µM
O=C(Nc1ccccc1C(=O)N1CCOCC1)c1ccc(F)cc1	21.4 µM
O=C(NC(C(=O)c1ccccc1)n1c(=O)cc[nH]c1=S)c1ccccc1 (stereo not given)	> 50 µM (inactive)

SMILES	IC50
Cc1cccc(NC(=O)c2snc3c(=O)[nH]cnc23)c1	> 50 µM (inactive)
CCOC(=O)c1c(C)nc2c(c1C)c(=O)oc1ccccc12	> 50 µM (inactive)
O=C(CCCN1C(=O)c2ccccc2C1=O)NCC1CCCO1 (stereo not given)	14.6 µM
O=C(c1ccc(F)cc1)N1CCN(C(=O)c2cccnc2)CC1	> 50 µM (inactive)
COc1ccc2c(=O)cc(-c3ccccc3)n(C)c2c1	> 50 µM (inactive)
Cc1c(NC(=O)c2cc3ccccc3o2)c(=O)n(-c2ccccc2)n1C	> 50 µM (inactive)
CNC(=O)COC(=O)c1[nH]c(C)c(C(C)=O)c1C	> 50 µM (inactive)
O=S(=O)(Cc1ccccc1)N1CCC(c2nc(-c3cccs3)no2)CC1	> 50 µM (inactive)
CC(C)c1nc2ccc(NC(=O)C3CCCCC3)cc2[nH]1	> 50 µM (inactive)
O=C(CCSc1nnc2ccc3ccccc3n12)Nc1ccc(F)cc1	> 50 µM (inactive)
OCCCn1c(-c2ccccc2)nc(=S)c2c1CCCC2	> 50 µM (inactive)
COC(=O)C(Cc1c[nH]c2ccccc12)NC(C)=O (stereo not given)	6.69 µM
O=S(=O)(Nc1cccc2nsnc12)c1ccccc1	9.3 µM
COC(=O)CSc1nnc(C)n1-c1cccc(OC)c1	2.36 µM
Cc1cc(C)n2nc(C(=O)Nc3ccc4c(c3)OCO4)cc2n1	> 50 µM (inactive)
CCc1ccc(NC(=O)Cn2nc(C(F)(F)F)c3c2CCC3)cc1	> 50 µM (inactive)
COc1cc(OC)c2c(N)c(C#N)c(C(F)(F)C(F)(F)F)nc2c1	> 50 µM (inactive)
O=C(Oc1ccc2c(=O)c(Cl)coc2c1)c1cccnc1	> 50 µM (inactive)
Cc1cc(=O)[nH]c(-n2[nH]c(C)cc2=O)n1	> 50 µM (inactive)
O=C(NCc1ccccc1)C1CCCN(S(=O)(=O)c2cccc3nonc23)C1 (stereo not given)	> 50 µM (inactive)
CCOc1ccc(S(=O)(=O)NCc2ccc(OC)cc2)c2cccnc12	> 50 µM (inactive)
Cc1ccc(C(=O)n2nnc3ccccc32)cc1	2.39 µM
Cc1ccc(NC(=O)CCn2cccc2)cc1	> 50 µM (inactive)
CCOC(=O)c1c(C)n(Cc2ccccc2)c2ccc(OCC(O)Cn3nc(C)cc3C)cc12 (stereo not given)	> 50 µM (inactive)
Cc1ccc(N(C(=O)c2ccccn2)C2(C(=O)NC3CCCC3)CCCCC2)cc1	> 50 µM (inactive)
